According to PubChem BioAssay AID2060485 (Molecular Pharmacology Branch, DTP, NCI, 2025):

Test system: A375 multi-cell spheroids with HUVEC/MSC, viability
Assay: Anticancer human tumor A375 cell line growth inhibition [GQUAD];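 further: spheroids exposed to compounds for seven days before readout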
Settings: for IC50: curve of first compound; for viability, T/C: stronger effect = lower value; active means viability on the fitted dose curve at most 10% of control; inactive means the rest
Method in brief: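 Viability of tumor cells grown as complex spheroids with endothelial and stromal cells, exposed to drug combinations. Top concentration at or near clinical Cmax (else 10 microM), diluted in half-log increments.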

[1] = second compound 0.0316 µM, first compound 0.0316 µM
[2] = second compound 0.0316 µM, first compound 0.1 µM
[3] = second compound 0.0316 µM, first compound 0.316 µM
[4] = second compound 0.0316 µM, first compound 1 µM
[5] = second compound 0.0316 µM, first compound 3.16 µM
[6] = second compound 0.0316 µM, first compound 10 µM
[7] = second compound 0.1 µM, first compound 0.0316 µM
[8] = second compound 0.1 µM, first compound 0.1 µM
[9] = second compound 0.1 µM, first compound 0.316 µM
[10] = second compound 0.1 µM, first compound 1 µM
[11] = second compound 0.1 µM, first compound 3.16 µM
[12] = second compound 0.1 µM, first compound 10 µM
[13] = second compound 0.316 µM, first compound 0.0316 µM
[14] = second compound 0.316 µM, first compound 0.1 µM
[15] = second compound 0.316 µM, first compound 0.316 µM
[16] = second compound 0.316 µM, first compound 1 µM
[17] = second compound 0.316 µM, first compound 3.16 µM
[18] = second compound 0.316 µM, first compound 10 µM
[19] = second compound 1 µM, first compound 0.0316 µM
[20] = second compound 1 µM, first compound 0.1 µM
[21] = second compound 1 µM, first compound 0.316 µM
[22] = second compound 1 µM, first compound 1 µM
[23] = second compound 1 µM, first compound 3.16 µM
[24] = second compound 1 µM, first compound 10 µM
[25] = second compound 3.16 µM, first compound 0.0316 µM
[26] = second compound 3.16 µM, first compound 0.1 µM
[27] = second compound 3.16 µM, first compound 0.316 µM
[28] = second compound 3.16 µM, first compound 1 µM
[29] = second compound 3.16 µM, first compound 3.16 µM
[30] = second compound 3.16 µM, first compound 10 µM
[31] = second compound 10 µM, first compound 0.0316 µM
[32] = second compound 10 µM, first compound 0.1 µM
[33] = second compound 10 µM, first compound 0.316 µM
[34] = second compound 10 µM, first compound 1 µM
[35] = second compound 10 µM, first compound 3.16 µM
[36] = second compound 10 µM, first compound 10 µM

C#Cc1c(F)ccc2cc(O)cc(-c3ncc4c(N5CC6CCC(C5)N6)nc(OCC56CCCN5CC(F)C6)nc4c3F)c12 (stereo unspecified) + Cc1cnc(CNC(=O)c2c(=O)c3ccc(N4CCCN(C)CC4)nc3n3c2sc2ccccc23)cn1
> 10000 nM: IC50 (second compound 0.0316 µM) | IC50 (second compound 0.1 µM) | IC50 (second compound 0.316 µM)
inactive: viability, T/C [1] 106% | viability, T/C [2] 109% | viability, T/C [3] 121% | viability, T/C [4] 120% | viability, T/C [5] 117% | viability, T/C [6] 117% | viability, T/C [7] 79% | viability, T/C [8] 74.6% | viability, T/C [9] 93.8% | viability, T/C [10] 85.1% | viability, T/C [11] 88.3% | viability, T/C [12] 96% | viability, T/C [13] 59.1% | viability, T/C [14] 51.8% | viability, T/C [15] 64.3% | viability, T/C [16] 55.1% | viability, T/C [17] 58.6% | viability, T/C [18] 47.9% | viability, T/C [19] 42.6% | viability, T/C [20] 42.6% | viability, T/C [21] 39.4% | viability, T/C [22] 40% | viability, T/C [23] 37.4% | viability, T/C [24] 38.8% | viability, T/C [25] 40.6% | viability, T/C [26] 36.9% | viability, T/C [27] 36.6% | viability, T/C [28] 34.7% | viability, T/C [29] 36.3% | viability, T/C [30] 33.7% | viability, T/C [31] 25.7% | viability, T/C [32] 28.3% | viability, T/C [33] 33.2% | viability, T/C [34] 34% | viability, T/C [35] 33.2% | viability, T/C [36] 32.3%
< 31.6 nM: IC50 (second compound 1 µM) | IC50 (second compound 3.16 µM) | IC50 (second compound 10 µM)

CC(C)(O)C1CCC(Nc2ccc3ncc(-c4cccc(C(F)(F)F)c4)n3n2)CC1 (stereo unspecified) + Cc1cnc(CNC(=O)c2c(=O)c3ccc(N4CCCN(C)CC4)nc3n3c2sc2ccccc23)cn1
< 31.6 nM: IC50 (second compound 1 µM) | IC50 (second compound 3.16 µM) | IC50 (second compound 10 µM)
> 10000 nM: IC50 (second compound 0.0316 µM)
1730 nM: IC50 (second compound 0.1 µM)
124 nM: IC50 (second compound 0.316 µM)
inactive: viability, T/C [1] 104% | viability, T/C [2] 110% | viability, T/C [3] 103% | viability, T/C [4] 96.1% | viability, T/C [5] 65.3% | viability, T/C [6] 91.2% | viability, T/C [7] 85.9% | viability, T/C [8] 79.5% | viability, T/C [9] 78.2% | viability, T/C [10] 54.5% | viability, T/C [11] 41% | viability, T/C [12] 49.1% | viability, T/C [13] 55% | viability, T/C [14] 53.4% | viability, T/C [15] 45.5% | viability, T/C [16] 38.8% | viability, T/C [17] 31.7% | viability, T/C [18] 29.7% | viability, T/C [19] 38.5% | viability, T/C [20] 40.9% | viability, T/C [21] 38% | viability, T/C [22] 31.4% | viability, T/C [23] 27.6% | viability, T/C [24] 25% | viability, T/C [25] 32.5% | viability, T/C [26] 35.4% | viability, T/C [27] 33% | viability, T/C [28] 26.3% | viability, T/C [29] 17.5% | viability, T/C [30] 23.8% | viability, T/C [31] 29.4% | viability, T/C [32] 27.5% | viability, T/C [33] 28.9% | viability, T/C [34] 21.2% | viability, T/C [35] 8.8%
active: viability, T/C [36] 0.26%

CCCS(=O)(=O)Nc1ccc(F)c(C(=O)c2c[nH]c3ncc(-c4ccc(Cl)cc4)cc23)c1F + Cc1cnc(CNC(=O)c2c(=O)c3ccc(N4CCCN(C)CC4)nc3n3c2sc2ccccc23)cn1
inactive: viability, T/C [1] 34.1% | viability, T/C [2] 16.2% | viability, T/C [7] 27.9% | viability, T/C [8] 14.7% | viability, T/C [13] 23.5% | viability, T/C [14] 14% | viability, T/C [19] 21.8% | viability, T/C [20] 13.2% | viability, T/C [25] 16.2% | viability, T/C [26] 11.3% | viability, T/C [31] 16% | viability, T/C [32] 13.5%
< 31.6 nM: IC50 (second compound 0.0316 µM) | IC50 (second compound 0.1 µM) | IC50 (second compound 0.316 µM) | IC50 (second compound 1 µM) | IC50 (second compound 3.16 µM) | IC50 (second compound 10 µM)
active: viability, T/C [3] 9.28% | viability, T/C [4] 8.24% | viability, T/C [5] 5.87% | viability, T/C [6] 7.01% | viability, T/C [9] 10.1% | viability, T/C [10] 6.6% | viability, T/C [11] 5.83% | viability, T/C [12] 5.93% | viability, T/C [15] 7.97% | viability, T/C [16] 6.65% | viability, T/C [17] 5.74% | viability, T/C [18] 3.51% | viability, T/C [21] 8.1% | viability, T/C [22] 6.44% | viability, T/C [23] 6.08% | viability, T/C [24] 2.62% | viability, T/C [27] 8.15% | viability, T/C [28] 7.91% | viability, T/C [29] 6.35% | viability, T/C [30] 0.08% | viability, T/C [33] 8.99% | viability, T/C [34] 7.73% | viability, T/C [35] 6.2% | viability, T/C [36] 0.13%
